Here are results for 21 compounds from patent US10851112B2, “Anti-HCMV virus compound” (MEDSHINE DISCOVERY INC., priority 2016, dated 2020).

Bounds are passed on as bounds.

Data set [1] relates to US3-6-EGFP-HCMV-AD169 viruses. Put plainly: Fluorescence decay assay against human cytomegalovirus. The class given is cell-based, human cytomegalovirus (HCMV). The following applies: Human betaherpesvirus 5, AD169, MRC5, 240 h. On the procedure: Fluorescence Decay Assay Against Human Cytomegalovirus
The antiviral activity of the compound against human cytomegalovirus (HCMV) was evaluated by determining the half maximal effective concentration (EC50) of the compound. The HCMV used in this assay was inserted with enhanced green fluorescent protein (EGFP) by gene recombination, so the viral replication in cells could be reflected by the expression level of GFP. The inhibitory activity of the compound on HCMV GFP expression was evaluated by determining the fluorescence intensity in the wells of different concentrations of the compound using a high content cell analysis platform Acumen eX3.
Fluorescence Decay Assay Against HCMV
MRC5 cells were inoculated into a black 96-well cell culture plate at a density of 20,000 cells per well. The plate was incubated overnight in a 37° C., 5% CO2 incubator. US3-6-EGFP-HCMV-AD169 viruses were added to the cell culture well at a certain MOI (0.003-0.1) and the plate was incubated for 3 hours in a 37° C., 5% CO2 incubator. After adsorption of viruses, the medium containing viruses was aspirated and 200 μL of cell culture medium containing different concentrations of the compound (4-fold dilution, 6 test concentrations) was added. The final concentration of DMSO in the medium was 1%. Virus control wells (with DMSO added, but no compound was added) and inhibition control wells (with a high concentration of control compound added) were set. The cell plate was incubated for 10 days in a 37° C., 5% CO2 incubator and the liquid was renewed on the 4th day and 7th day. After 10 days of culture, the fluorescence intensity was determined using a high content cell analysis platform Acumen eX3 (TTP LabTech). The original data was used for calculating the antiviral activity of the compound.
The inhibition % was imported into GraphPad Prism software for data processing to give a corresponding dose-response curve for the compound and the EC50 of the test compound was obtained.

Data set [2] can be described thus: Plasma protein binding rate test, equilibrium dialysis, human plasma. The format is in vitro ADME. Conditions: equilibrium dialysis 37° C. 4 hours, read-out: plasma protein binding PPB bound (%) (converted). As to the method: (§1) Plasma Protein Binding Rate Test of the Compound
(§2) The protein binding rate of the test compound in CD-1 mice, SD rats, and human plasma was evaluated by equilibrium dialysis. The test compound was diluted into the plasma of the above three species respectively to prepare a sample with a final concentration of 2 μM. The sample was added to a 96-well equilibrium dialysis device, and dialyzed using a phosphate buffer solution at 37° C. for 4 hours. Warfarin was used as a control compound in the experiment. The concentration of the test compound and warfarin in the plasma and the buffer was determined by LC-MS/MS.

Data set [3] in a line: Plasma protein binding rate test, equilibrium dialysis, SD rat plasma. The format is in vitro ADME. Conditions: rat plasma (R), equilibrium dialysis 37° C. 4 hours, read-out: plasma protein binding PPB bound (%) (converted). As to the method:
as §1, §2

Data set [4] in a line: Plasma protein binding rate test, equilibrium dialysis, CD-1 mouse plasma. The class given is in vitro ADME. Conditions: mouse plasma (M), equilibrium dialysis 37° C. 4 hours, read-out: plasma protein binding PPB bound (%) (converted). As to the method: as §1, §2
For data set [5], the system named is HCMV viruses (strain: GFP-AD169). Nature of the data set: Human cytomegalovirus (HCMV) transplantation model in mouse. The class given is in vivo. The following applies: NOD SCID mice, oral 8 mg/kg once a day, 1st to 9th day, plaque detection in gelatin sponge. On the procedure: Human Cytomegalovirus (HCMV) Transplantation Model in Mouse
A gelatin sponge containing HCMV was transplanted into mice. After 9 days of continuous administration, the gelatin sponge was collected for plaque detection. The anti-HCMV effect of the compound in the model was evaluated by determining the amount of HCMV in the gelatin sponge.
The animals selected for the experiment were NOD SCID mice (purchased from Shanghai Slac Laboratory Animal Co., Ltd.), 5 weeks, male, 5 animals per group. The day when the mice were transplanted with gelatin sponge was set to be day 0. Human foreskin fibroblasts (HFF, MOI=0.03) were previously infected with HCMV viruses (strain: GFP-AD169). The HMV cells infected with HCMV were added to a 1 cm^2 gelatin sponge for incubation. Animals were anesthetized by intraperitoneal injection of pentobarbital sodium at a dose of 75 mg/kg (10 mL/kg). After the animals entered deep anesthesia, the prepared gelatin sponge was subcutaneously transplanted into the back of the mice. From 1st day to 9th day, the mice were orally administered with the test compound at a dose of 8 mg/kg (10 mL/kg) once a day. At 4 hours after the administration on the 9th day, the gelatin sponge was taken out and digested. The plaque was detected.

With `COc1cc(N2[C@H](C)CN(C3=Nc4ccsc4[C@H](CC(=O)O)N3c3cc(C(F)(F)F)ccc3OC)C[C@@H]2C)ccn1` (single isomer, unassigned) [WX-161], the EC50 in data set [1] stood at 0.317 nM. Also, the fraction unbound at 4 h, 2 μM was 0.02 in data set [2], 0.023 in data set [3] and 0.004 in data set [4].

Take `COc1cc(N2CCN(C3=Nc4ccsc4[C@H](CC(=O)O)N3c3cc(C(F)(F)F)ccc3OC)CC2)ccn1` (single isomer, unassigned) [WX-109]: in data set [1], the EC50 came out at 4 nM. Further, the fraction unbound at 4 h, 2 μM in data set [2] is 0.097; in data set [3] it was 0.108; in data set [4], 0.055.

For the compound `COc1cc(N2CCN(C3=Nc4cscc4[C@H](CC(=O)O)N3c3cc(C(F)(F)F)ccc3OC)C[C@H]2C)ccn1` (single isomer, unassigned) [WX-151], in data set [1], the EC50 came to 0.503 nM. Besides, the fraction unbound at 4 h, 2 μM was 0.047 in data set [2], 0.05 in data set [3] and 0.011 in data set [4]. For the same compound, the “decrease in HCMV viral load” value in data set [5] amounted to 2.30 log PFU/mL.

For the compound `COc1cc(N2CCN(C3=Nc4c(csc4F)[C@H](CC(=O)O)N3c3cc(C(F)(F)F)ccc3OC)C[C@H]2C)ncn1` (single isomer, unassigned) [WX-149], in data set [1], the EC50 amounted to 0.67 nM. The values for the fraction unbound at 4 h, 2 μM in data set [2], in data set [3] and in data set [4] were 0.024, 0.017 and 0.002, respectively.

Turning to `COc1cccc(N2CCN(C3=Nc4ccsc4[C@H](CC(=O)O)N3c3cc(C(F)(F)F)ccc3OC)CC2)c1` (single isomer, unassigned) [WX-088], the EC50 in data set [1] turned out to be 2 nM. Moreover, the fraction unbound at 4 h, 2 μM in data set [2] is 0.024; in data set [3] it was 0.028; in data set [4], 0.022.

`COc1ccnc(N2CCN(C3=Nc4c(csc4F)[C@H](CC(=O)O)N3c3cc(C(F)(F)F)ccc3OC)C[C@H]2C)c1` (single isomer, unassigned) [WX-145]: the EC50 in data set [1] turned out to be 2 nM. Moreover, the figures for the fraction unbound at 4 h, 2 μM in data set [2], in data set [3] and in data set [4] were 0.023, 0.014 and 0.001, respectively.

With `COc1cc(N2CCN(C3=Nc4c(csc4F)[C@H](CC(=O)O)N3c3cc(C(F)(F)F)ccc3OC)C[C@H]2C)ccn1` (single isomer, unassigned) [WX-147], the EC50 in data set [1] turned out to be 0.17 nM. Moreover, the fraction unbound at 4 h, 2 μM in data set [2] was 0.018; in data set [3] it was 0.014; in data set [4] it was 0.002.

On to `COc1cccc(N2CCN(C3=Nc4ccsc4[C@H](CC(=O)O)N3c3cc(C(F)(F)F)ccc3OC)C[C@H]2C)c1` (single isomer, unassigned) [WX-136], for which the EC50 in data set [1] stood at 0.17 nM. Moreover, the “decrease in HCMV viral load” value in data set [5] turned out to be 2.33 log PFU/mL.

Turning to `COc1cccc(N2CCN(C3=Nc4c(csc4F)[C@H](CC(=O)O)N3c3cc(C(F)(F)F)ccc3OC)C[C@H]2C)c1` (single isomer, unassigned) [WX-132], the EC50 in data set [1] is 0.15 nM. Also, the fraction unbound at 4 h, 2 μM was 0.022 in data set [2], 0.017 in data set [3] and 0.011 in data set [4].

Consider `COc1cc(N2CCN(C3=Nc4ccsc4[C@H](CC(=O)O)N3c3cc(C(F)(F)F)ccc3OC)C[C@H]2C)ccn1` (single isomer, unassigned) [WX-141], for which, in data set [1], the EC50 was 0.2 nM. Moreover, the fraction unbound at 4 h, 2 μM was 0.06 in data set [2], 0.061 in data set [3] and 0.017 in data set [4]. For the same compound, the “decrease in HCMV viral load” value in data set [5] was 2.38 log PFU/mL.

In the case of `COc1cc(N2CCN(C3=Nc4c(C)csc4[C@H](CC(=O)O)N3c3cc(C(F)(F)F)ccc3OC)C[C@H]2C)ccn1` (single isomer, unassigned) [WX-153], the EC50 in data set [1] turned out to be 0.26 nM. Besides, the fraction unbound at 4 h, 2 μM in data set [2] is 0.019; in data set [3], 0.02; in data set [4], 0.011.

`COc1cc(N2CCN(C3=Nc4cc(C)sc4[C@H](CC(=O)O)N3c3cc(C(F)(F)F)ccc3OC)C[C@H]2C)ccn1` (single isomer, unassigned) [WX-173]: in data set [1], the EC50 is 0.849 nM.

With `COc1cc(N2CCN(C3=Nc4ccsc4[C@H](CC(=O)O)N3c3cc(C(F)(F)F)ccc3OC)C[C@H]2C)ncn1` (single isomer, unassigned) [WX-143], the EC50 in data set [1] amounted to 0.89 nM. In addition, the results for the fraction unbound at 4 h, 2 μM in data set [2], in data set [3] and in data set [4] were 0.069, 0.066 and 0.015, respectively.

As to `COc1cccc(N2CCN(C3=Nc4ccsc4[C@@H](CC(=O)O)N3c3cc(C(F)(F)F)ccc3OC)CC2)c1` (single isomer, unassigned) [WX-087], the EC50 in data set [1] was greater than 1000 nM.

With `COc1cccc(N2CCN(C3=Nc4c(csc4F)[C@@H](CC(=O)O)N3c3cc(C(F)(F)F)ccc3OC)C[C@H]2C)c1` (single isomer, unassigned) [WX-131], the EC50 in data set [1] came to 55 nM.

Take `COc1cc(N2CCN(C3=Nc4ccsc4[C@@H](CC(=O)O)N3c3cc(C(F)(F)F)ccc3OC)CC2)ccn1` (single isomer, unassigned) [WX-108]: the EC50 in data set [1] was determined as 340 nM.

As for `COc1cncc(N2CCN(C3=Nc4c(csc4F)[C@H](CC(=O)O)N3c3cc(C(F)(F)F)ccc3OC)C[C@H]2C)c1` (single isomer, unassigned) [WX-133], the EC50 in data set [1] was found to be 17 nM.

Take `COc1ccc(C(F)(F)F)cc1N1C(N2CCC(F)(c3ccc(F)cc3)CC2)=Nc2ccsc2[C@H]1CC(=O)O` (single isomer, unassigned) [WX-089]: in data set [1], the EC50 was greater than 1000 nM.

As for `COc1ccnc(N2CCN(C3=Nc4ccsc4[C@H](CC(=O)O)N3c3cc(C(F)(F)F)ccc3OC)C[C@H]2C)c1` (single isomer, unassigned) [WX-139], the EC50 in data set [1] was 3 nM. Moreover, the values for the fraction unbound at 4 h, 2 μM in data set [2], in data set [3] and in data set [4] were 0.06, 0.041 and 0.014, respectively.

With `COc1cc(N2[C@H](C)CN(C3=Nc4cscc4[C@@H](CC(=O)O)N3c3cc(C(F)(F)F)ccc3OC)C[C@@H]2C)ccn1` (single isomer, unassigned) [WX-199], the EC50 in data set [1] was greater than 10 nM.

For `COc1ccnc(N2CCN(C3=Nc4c(csc4F)[C@H](CC(=O)O)N3c3cc(C(F)(F)F)ccc3OC)C[C@H]2C)n1` (single isomer, unassigned) [WX-129], the EC50 in data set [1] worked out at 14 nM.
